Source: ChEMBL document CHEMBL5518240 (J Med Chem, 2024)

Experiments:
[1] = biological target: T1, Protein cereblon/CREB-binding protein (Homo sapiens, UniProt Q92793+Q96SW2); experiment: PROTAC activity at CBP/CRBN in human VCaP cells assessed as maximal protein degradation at 1 uM incubated for 4 hrs by Western blot analysis relative to control; format: cell-based
[2] = biological target: T1, Protein cereblon/CREB-binding protein; experiment: PROTAC activity at CBP/CRBN in AR positive human VCaP cells assessed as maximal protein degradation at 0.15 nM incubated for 4 hrs by Western blot analysis relative to control; format: cell-based
[3] = biological target: T1, Protein cereblon/CREB-binding protein; experiment: PROTAC activity at CBP/CRBN in AR positive human VCaP cells assessed as maximal protein degradation at 0.46 nM incubated for 4 hrs by Western blot analysis relative to control; format: cell-based
[4] = biological target: T1, Protein cereblon/CREB-binding protein; experiment: PROTAC activity at CBP/CRBN in AR positive human VCaP cells assessed as maximal protein degradation at 1.4 nM incubated for 4 hrs by Western blot analysis relative to control; format: cell-based
[5] = biological target: T1, Protein cereblon/CREB-binding protein; experiment: PROTAC activity at CBP/CRBN in AR positive human VCaP cells assessed as maximal protein degradation at 4.1 nM incubated for 4 hrs by Western blot analysis relative to control; format: cell-based
[6] = biological target: T1, Protein cereblon/CREB-binding protein; experiment: PROTAC activity at CBP/CRBN in AR positive human VCaP cells assessed as maximal protein degradation at 37 nM incubated for 4 hrs by Western blot analysis relative to control; format: cell-based
[7] = biological target: T1, Protein cereblon/CREB-binding protein; experiment: PROTAC activity at CBP/CRBN in AR positive human VCaP cells assessed as maximal protein degradation at 111.1 nM incubated for 4 hrs by Western blot analysis relative to control; format: cell-based
[8] = biological target: T2, Protein cereblon/Histone acetyltransferase p300 (Homo sapiens, UniProt Q09472+Q96SW2); experiment: PROTAC activity at p300/CRBN in AR positive human VCaP cells assessed as maximal protein degradation at 12.3 nM incubated for 4 hrs by Western blot analysis relative to control; format: cell-based
[9] = Half life in male ICR mouse at 1 mg/kg, iv measured upto 24 hrs by LC-MS/MS analysis; format: ADME, organism-based; conditions: in vivo
[10] = Cmax in male ICR mouse at 3 mg/kg, po measured upto 24 hrs by LC-MS/MS analysis; format: ADME, organism-based; conditions: in vivo
[11] = biological target: T2, Protein cereblon/Histone acetyltransferase p300; experiment: PROTAC activity at p300/CRBN in human LNCaP cells assessed as maximal protein degradation at 1 uM incubated for 4 hrs by Western blot analysis relative to control; format: cell-based
[12] = biological target: T1, Protein cereblon/CREB-binding protein; experiment: PROTAC activity at CBP/CRBN in human 22Rv1 cells assessed as maximal protein degradation at 1 uM incubated for 4 hrs by Western blot analysis relative to control; format: cell-based
CWR22R [13] = experiment: Antiproliferative activity against AR positive human 22Rv1 cells assessed inhibition of cell growth measured after 4 days by CellTiter-Glo Luminescent cell viability assay; format: functional, cell-based; conditions: 22Rv1, 96 h
LNCaP [14] = experiment: Antiproliferative activity against AR positive human LNCaP cells assessed inhibition of cell growth measured after 4 days by CellTiter-Glo Luminescent cell viability assay; format: functional, cell-based; conditions: 96 h
LNCaP [15] = experiment: Potency index, ratio of GNE-049 IC50 to test compound IC50 for antiproliferative activity against AR positive human LNCaP cells assessed inhibition of cell growth measured after 4 days by CellTiter-Glo Luminescent cell viability assay; format: functional; conditions: time 4 day
VCaP [16] = experiment: Reduction in KLK3 gene expression in AR positive human VCaP cells assessed as reduction in mRNA level measured after 6 hrs by qRT-PCT analysis relative to control; format: functional, cell-based; conditions: dose 0.1-1000 nM
CWR22R [17] = experiment: Reduction in KLK3 gene expression in AR positive human 22Rv1 cells assessed as reduction in mRNA level measured after 6 hrs by qRT-PCT analysis relative to control; format: functional, cell-based; conditions: dose 0.1-1000 nM
[18] = Reduction in KLK3 gene expression in AR positive human VCaP cells assessed as reduction in mRNA level at 1 nM measured after 6 hrs by qRT-PCT analysis relative to control; format: functional
[19] = Reduction in c-Myc gene expression in AR positive human LNCaP cells assessed as reduction in mRNA level at 10 nM measured after 6 hrs by qRT-PCT analysis relative to control; format: functional
[20] = Reduction in c-Myc gene expression in AR positive human 22Rv1 cells assessed as reduction in mRNA level at 10 nM measured after 6 hrs by qRT-PCT analysis relative to control; format: functional, CWR22R
[21] = biological target: T1, Protein cereblon/CREB-binding protein; experiment: In vivo PROTAC activity at CBP/CRBN in human VCaP cells xenografted in SCID mouse assessed as reduction in CBP protein at 1 mg/kg, po measured after 24 hrs; format: functional, organism-based; parameters: scale not given: the % may be the effect or the level left
[22] = biological target: T1, Protein cereblon/CREB-binding protein; experiment: In vivo PROTAC activity at p300/CRBN in human VCaP cells xenografted in CB17 SCID mouse assessed as reduction in CBP protein at 3 mg/kg, po measured after 24 hrs; format: functional, organism-based; parameters: scale not given: the % may be the effect or the level left
[23] = biological target: T1, Protein cereblon/CREB-binding protein; experiment: In vivo PROTAC activity at p300/CRBN in human VCaP cells xenografted in CB17 SCID mouse assessed as reduction in CBP protein at 1 mg/kg, po measured after 24 hrs; format: functional, organism-based; parameters: scale not given: the % may be the effect or the level left
VCaP [24] = experiment: Antitumor activity against human VCaP cells xenografted in CB17 SCID mouse model assessed as tumor growth inhibition at 1 mg/kg, po qod scheduled 5 days in a week measured on day 63; format: functional; conditions: 1512 h, time 63 day, read-out: TGI

T1 sequence (Q92793 2-2442 limits assumed): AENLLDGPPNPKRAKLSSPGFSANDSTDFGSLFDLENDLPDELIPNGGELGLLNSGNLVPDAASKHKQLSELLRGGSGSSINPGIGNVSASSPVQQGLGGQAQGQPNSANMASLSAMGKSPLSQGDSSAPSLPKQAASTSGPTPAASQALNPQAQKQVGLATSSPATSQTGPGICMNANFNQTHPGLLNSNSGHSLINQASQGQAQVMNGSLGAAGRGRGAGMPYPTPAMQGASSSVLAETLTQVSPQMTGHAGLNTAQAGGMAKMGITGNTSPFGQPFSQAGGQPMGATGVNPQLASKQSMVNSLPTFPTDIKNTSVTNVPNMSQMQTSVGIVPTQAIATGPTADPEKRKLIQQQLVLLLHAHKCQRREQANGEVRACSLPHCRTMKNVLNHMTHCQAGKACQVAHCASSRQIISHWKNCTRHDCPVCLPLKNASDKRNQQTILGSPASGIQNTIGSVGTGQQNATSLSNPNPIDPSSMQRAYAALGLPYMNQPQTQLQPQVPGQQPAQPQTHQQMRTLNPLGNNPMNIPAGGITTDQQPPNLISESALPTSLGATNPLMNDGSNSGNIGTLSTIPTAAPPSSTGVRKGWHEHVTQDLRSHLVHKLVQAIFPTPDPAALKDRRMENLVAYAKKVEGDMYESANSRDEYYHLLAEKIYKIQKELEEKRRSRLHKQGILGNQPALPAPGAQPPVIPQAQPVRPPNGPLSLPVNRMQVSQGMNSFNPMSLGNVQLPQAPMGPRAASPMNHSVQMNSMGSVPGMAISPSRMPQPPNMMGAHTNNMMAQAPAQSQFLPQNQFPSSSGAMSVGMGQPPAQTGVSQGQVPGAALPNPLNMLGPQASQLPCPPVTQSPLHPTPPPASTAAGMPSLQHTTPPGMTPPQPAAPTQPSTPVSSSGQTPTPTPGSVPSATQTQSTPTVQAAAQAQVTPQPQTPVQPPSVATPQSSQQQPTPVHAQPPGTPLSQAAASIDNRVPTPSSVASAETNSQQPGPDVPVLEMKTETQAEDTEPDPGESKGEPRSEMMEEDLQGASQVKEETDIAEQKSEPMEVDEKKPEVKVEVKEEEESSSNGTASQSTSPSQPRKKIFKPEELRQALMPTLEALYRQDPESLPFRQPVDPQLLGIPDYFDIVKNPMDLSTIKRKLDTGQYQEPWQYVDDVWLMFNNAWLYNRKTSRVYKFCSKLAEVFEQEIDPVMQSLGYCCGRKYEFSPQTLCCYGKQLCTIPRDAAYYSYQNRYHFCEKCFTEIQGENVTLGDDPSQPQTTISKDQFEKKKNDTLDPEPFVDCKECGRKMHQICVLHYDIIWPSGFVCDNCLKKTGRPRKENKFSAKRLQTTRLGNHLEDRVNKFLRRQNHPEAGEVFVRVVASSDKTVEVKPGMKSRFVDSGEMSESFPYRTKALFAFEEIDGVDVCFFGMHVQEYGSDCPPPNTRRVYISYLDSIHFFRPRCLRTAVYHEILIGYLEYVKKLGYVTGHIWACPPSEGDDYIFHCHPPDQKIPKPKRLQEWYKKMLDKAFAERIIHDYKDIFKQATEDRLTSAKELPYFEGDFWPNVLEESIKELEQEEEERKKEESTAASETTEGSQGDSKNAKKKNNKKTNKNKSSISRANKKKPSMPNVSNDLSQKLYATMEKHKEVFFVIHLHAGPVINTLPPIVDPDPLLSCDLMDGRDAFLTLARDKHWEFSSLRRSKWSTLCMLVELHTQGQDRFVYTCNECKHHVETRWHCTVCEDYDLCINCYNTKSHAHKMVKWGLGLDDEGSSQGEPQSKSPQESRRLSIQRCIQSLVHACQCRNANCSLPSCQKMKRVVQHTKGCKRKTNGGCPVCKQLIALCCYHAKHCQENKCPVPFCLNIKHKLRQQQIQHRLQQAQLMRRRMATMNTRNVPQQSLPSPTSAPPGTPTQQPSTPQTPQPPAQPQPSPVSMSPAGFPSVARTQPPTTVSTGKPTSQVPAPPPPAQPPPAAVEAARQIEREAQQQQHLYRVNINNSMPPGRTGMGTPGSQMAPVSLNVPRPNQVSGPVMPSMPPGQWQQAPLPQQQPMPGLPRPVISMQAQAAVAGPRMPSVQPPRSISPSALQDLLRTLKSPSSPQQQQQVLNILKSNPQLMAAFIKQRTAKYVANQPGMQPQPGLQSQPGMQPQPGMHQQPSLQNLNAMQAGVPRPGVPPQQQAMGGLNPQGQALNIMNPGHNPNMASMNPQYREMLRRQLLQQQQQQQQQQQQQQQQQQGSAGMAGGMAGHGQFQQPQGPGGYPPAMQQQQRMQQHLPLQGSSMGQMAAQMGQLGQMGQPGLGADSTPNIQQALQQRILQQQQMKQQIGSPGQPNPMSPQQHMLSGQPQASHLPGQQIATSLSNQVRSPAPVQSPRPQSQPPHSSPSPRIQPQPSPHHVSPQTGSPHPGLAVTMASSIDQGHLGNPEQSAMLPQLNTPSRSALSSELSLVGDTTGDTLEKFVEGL
T1 sequence (Q96SW2 whole entry partner): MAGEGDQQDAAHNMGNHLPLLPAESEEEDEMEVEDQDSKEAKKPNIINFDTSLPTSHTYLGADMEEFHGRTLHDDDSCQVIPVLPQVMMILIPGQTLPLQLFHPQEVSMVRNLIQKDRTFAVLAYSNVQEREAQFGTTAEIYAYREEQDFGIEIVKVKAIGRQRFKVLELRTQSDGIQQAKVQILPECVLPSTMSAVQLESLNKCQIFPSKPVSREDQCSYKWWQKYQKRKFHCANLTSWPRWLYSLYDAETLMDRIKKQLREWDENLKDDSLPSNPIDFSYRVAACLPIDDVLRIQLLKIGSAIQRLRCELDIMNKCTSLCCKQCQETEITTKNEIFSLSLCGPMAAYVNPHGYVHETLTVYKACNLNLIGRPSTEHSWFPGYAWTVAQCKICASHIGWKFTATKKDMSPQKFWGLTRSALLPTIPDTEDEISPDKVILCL

- Emax [1]: > 95%
- Activity [2]: 15%
- Activity [3]: 76%
- Activity [4]: 91%
- Activity [5]: 97%
- Activity [6]: 98%
- Activity [7]: 94%
- Activity [8]: 100%
- half-life [9]: 2.8 h
- Cmax [10]: 2490 ng/mL
- Emax [11]: 95%
- Emax [12]: 93%
- IC50 (LNCaP [14]): 1.6 nM
- Activity [21]: > 95%
- Activity [22]: > 95%
- Activity [23]: > 95%
Structure (SMILES): CC(=O)N1CCc2c(c(N3CCCc4cc(-c5cnn(C)c5)c(C(F)F)cc43)nn2[C@H]2CC[C@H](CN3CCN(c4ccc5c(c4)C(=O)N(C4CCC(=O)NC4=O)C5=O)CC3)CC2)C1 (some centres undefined)
- IC50 (CWR22R [13]): 1.2 nM
- Ratio IC50 (LNCaP [15]): 100
- inhibition (VCaP [16]): Dose-Dependent Effect
- inhibition (CWR22R [17]): Dose-Dependent Effect
- inhibition at 0.001 µM [18]: 57%
- inhibition at 0.01 µM [19]: > 95%
- inhibition at 0.01 µM [20]: > 95%
- inhibition in vivo at 1 mg/kg (VCaP [24]): 71%
